Where “and” joins values, the source holds several entries; their conditions need not be identical. Identical values can stand only once.
Test system: 138582-337-R-J1-PDC spheroids with HUVEC/MSC, viability
Test: Anticancer human tumor 138582-337-R-J1-PDC patient-derived Merkel cell tumor cell line growth inhibition [IpAb]
Conditions: for viability, T/C: stronger effect = lower value
Excerpt: Combinatorial screen of targeted agents with ipatasertib and abemaciclib in multi-cell type tumor spheroids
A high-throughput screen of multi-cell type tumor spheroids was designed to identify active combinations of targeted small molecules and ipatasertib or abemaciclib. Complex spheroids include a stromal component modeled by human endothelial cells (HUVEC) and fibroblasts modeled by human mesenchymal stem cells (MSCs). The concentration ranges selected for each drug and investigational agent were based upon clinically achievable concentrations if the clinical Cmax of the agent was known.
Compounds. The drugs and investigational agents: ipatasertib (NSC767898), abemaciclib(NSC768073), selumetinib (NSC741078), trametinib (758246), adavosertib (NSC754352), everolimus (NSC733504), sapanisertib (NSC764658), vemurafenib (NSC761431), venetoclax (NSC766270), copanlisib (NSC809693), apelisib (NSC765974), palbociblib (NSC758247), vemurafenib (NSC761431), dabrafenib (NSC764134), ravoxertinib (NSC781343), BMS-387032 (NSC767048), sotorasib (NSC818433), talazoparib (NSC767125) and afursertib (NSC778305), were obtained from the National Cancer Institute (NCI) Developmental Therapeutics Program Chemical Repository. The FDA-approved anticancer drug set is available from the NCI Developmental Therapeutics Program. […] The stock solutions were prepared in dimethyl sulfoxide (DMSO, Sigma-Aldrich, St. Louis, MO, cat. D2650) at 800-fold the tested concentration and stored at -70 degrees C prior to their use. All drugs and investigational agents were tested over a range starting from a high concentration at or near the clinical Cmax and decreasing in half-log increments. If the clinical Cmax for an agent had not been determined, the highest concentration tested was 10 microM.
NCI60 Cell Culture. NCI60 cell lines were obtained from the NCI Developmental Therapeutics Program Tumor Repository. For each lot of cells, the Repository performed Applied Biosystems AmpFLSTR Identifiler testing with PCR amplification to confirm consistency with the published Identifier STR profile for each cell line. Cells were kept in continuous culture for no more than 20 passages. The optimal seeding densities for each of the cell lines at each time point assessed were determined prior to performing the concentration response studies. Briefly, the NCI60 human tumor lines were grown as monolayers in RPMI 1640 medium supplemented with 10% FBS and 2 mmol/L L-glutamine.
An additional 9 lines were from the NCI60 cell line panel including MDA-MB-231 breast carcinoma, MDA-MB-468 breast carcinoma, MCF7 breast carcinoma, Hs578T breast carcinoma, MALME-3M melanoma, SK-MEL-2 melanoma, SK-OV-3 ovarian carcinoma, DU-145 prostate carcinoma, PC-3 prostate carcinoma, all cell lines along with major genetic alterations are listed on Table 2. Pooled donor human umbilical vein endothelial cells (HUVEC, Lonza, cat. CC-2519) and human mesenchymal stem cells (hMSC, Lonza, cat. PT-2501) were purchased from Lonza (Walkersville, MD).
PDMR cell lines were grown in complete medium (DC medium): Dulbecco's modified Eagle's medium (DMEM)/F12 supplemented with 5% fetal bovine serum (FBS), 2 mM L-glutamine, 100 U/mL penicillin and 100 µg/ml streptomycin, 0.4 µg/ml hydrocortisone, 10 ng/ml epidermal growth factor (EGF) recombinant human protein, 24 µg/mL adenine, and 0.1 mg/mL primocin. During culture from frozen stock vials, PDMR cells were cultured in the same medium containing 10 µM Y-27632 (see Table 3). The PDCs were cultured in complete DMEM/F12 media without 10 microM Y-27632 dihydrochloride for at least two passages prior to the screen. The pooled donor HUVEC and hMSC were cultured in endothelial cell growth medium 2 (PromoCell, Heidelberg, Germany, cat. C-22011) and mesenchymal stem cell growth medium 2 (PromoCell, cat. C-28009), respectively. For all experiments, HUVEC and hMSC were used at passages </=5.
[…]
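Also: spheroids exposed to compounds for seven days.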
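For viability, T/C in this document: 100% = DMSO vehicle control viability.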

Cc1nc(NC(=O)N2CCCC2C(N)=O)sc1-c1ccnc(C(C)(C)C(F)(F)F)c1 (stereo not given)
viability, T/C (compound 0.0316 µM): 97.5% and 84.4% | viability, T/C (compound 0.1 µM): 80.2% and 88.7% | viability, T/C (compound 0.316 µM): 65.3% and 69.1% | viability, T/C (compound 1 µM): 59.3% and 53.7% | viability, T/C (compound 3.16 µM): 52.5% and 46.1% | viability, T/C (compound 10 µM): 29.6% and 18.7% | IC50 (curve of compound): 2030 nM and 1790 nM

Cn1cnc2c(F)c(Nc3ccc(Br)cc3Cl)c(C(=O)NOCCO)cc21
viability, T/C (compound 0.00949 µM): 112% and 90.1% | viability, T/C (compound 0.03 µM): 96.5% and 82.8% | viability, T/C (compound 0.0949 µM): 98.2% and 82.7% | viability, T/C (compound 0.3 µM): 116% and 84% | viability, T/C (compound 0.949 µM): 109% and 97.7% | viability, T/C (compound 3 µM): 146% and 106% | IC50 (curve of compound): > 3000 nM

Cn1ncc(Cl)c1-c1cc(C(=O)NC(CN)Cc2cccc(F)c2)sc1Cl (stereo not given)
viability, T/C (compound 0.0316 µM): 89.5% and 99.6% | viability, T/C (compound 0.1 µM): 80.9% and 77% | viability, T/C (compound 0.316 µM): 86.6% and 67.6% | viability, T/C (compound 1 µM): 72.8% and 61.9% | viability, T/C (compound 3.16 µM): 66.4% and 46% | viability, T/C (compound 10 µM): 0.28% and 0.56% | IC50 (curve of compound): 4050 nM and 1720 nM

Cn1nccc1Nc1nccc(-c2ccn(C(CO)c3ccc(Cl)c(F)c3)c(=O)c2)n1 (stereo not given)
viability, T/C (compound 0.0316 µM): 96.2% and 97.2% | viability, T/C (compound 0.1 µM): 94.1% and 93.3% | viability, T/C (compound 0.316 µM): 106% and 92.3% | viability, T/C (compound 1 µM): 109% and 104% | viability, T/C (compound 3.16 µM): 124% and 111% | viability, T/C (compound 10 µM): 132% and 127% | IC50 (curve of compound): > 10000 nM

Cn1ncnc1[C@H]1c2n[nH]c(=O)c3cc(F)cc(c23)N[C@@H]1c1ccc(F)cc1
viability, T/C (compound 0.000316 µM): 104% and 97.7% | viability, T/C (compound 0.001 µM): 91% | viability, T/C (compound 0.00316 µM): 92.1% and 91.5% | viability, T/C (compound 0.01 µM): 86.4% and 86.3% | viability, T/C (compound 0.0316 µM): 83% and 86.4% | viability, T/C (compound 0.1 µM): 89.5% and 79.1% | IC50 (curve of compound): > 100 nM

Cn1cnc2c(F)c(Nc3ccc(Br)cc3Cl)c(C(=O)NOCCO)cc21 + CC(C)NCC(C(=O)N1CCN(c2ncnc3c2C(C)CC3O)CC1)c1ccc(Cl)cc1
IC50 (curve of first compound, second compound 0.1 µM): > 3000 nM | IC50 (curve of first compound, second compound 0.316 µM): 1760 nM | IC50 (curve of first compound, second compound 1 µM): 328 nM | IC50 (curve of first compound, second compound 3.16 µM): 63.7 nM | IC50 (curve of first compound, second compound 10 µM): < 9.49 nM | viability, T/C (second compound 0.1 µM, first compound 0.00949 µM): 97.8% | viability, T/C (second compound 0.1 µM, first compound 0.03 µM): 88.1% | viability, T/C (second compound 0.1 µM, first compound 0.0949 µM): 85.2% | viability, T/C (second compound 0.1 µM, first compound 0.3 µM): 83.8% | viability, T/C (second compound 0.1 µM, first compound 0.949 µM): 101% | viability, T/C (second compound 0.1 µM, first compound 3 µM): 105% | viability, T/C (second compound 0.316 µM, first compound 0.00949 µM): 74.9% | viability, T/C (second compound 0.316 µM, first compound 0.03 µM): 73.3% | viability, T/C (second compound 0.316 µM, first compound 0.0949 µM): 69.6% | viability, T/C (second compound 0.316 µM, first compound 0.3 µM): 55% | viability, T/C (second compound 0.316 µM, first compound 0.949 µM): 56.6% | viability, T/C (second compound 0.316 µM, first compound 3 µM): 46.7% | viability, T/C (second compound 1 µM, first compound 0.00949 µM): 58.9% | viability, T/C (second compound 1 µM, first compound 0.03 µM): 68.2% | viability, T/C (second compound 1 µM, first compound 0.0949 µM): 56% | viability, T/C (second compound 1 µM, first compound 0.3 µM): 47.2% | viability, T/C (second compound 1 µM, first compound 0.949 µM): 42.4% | viability, T/C (second compound 1 µM, first compound 3 µM): 22.4% | viability, T/C (second compound 3.16 µM, first compound 0.00949 µM): 57.1% | viability, T/C (second compound 3.16 µM, first compound 0.03 µM): 64% | viability, T/C (second compound 3.16 µM, first compound 0.0949 µM): 42.5% | viability, T/C (second compound 3.16 µM, first compound 0.3 µM): 33.4% | viability, T/C (second compound 3.16 µM, first compound 0.949 µM): 27.5% | viability, T/C (second compound 3.16 µM, first compound 3 µM): 11.3% | viability, T/C (second compound 10 µM, first compound 0.00949 µM): 46.1% | viability, T/C (second compound 10 µM, first compound 0.03 µM): 46.7% | viability, T/C (second compound 10 µM, first compound 0.0949 µM): 33.6% | viability, T/C (second compound 10 µM, first compound 0.3 µM): 24.9% | viability, T/C (second compound 10 µM, first compound 0.949 µM): 18.6% | viability, T/C (second compound 10 µM, first compound 3 µM): 3.49%

Reference: PubChem BioAssay AID2060343 (Molecular Pharmacology Branch, DTP, NCI, 2025)
